Values after ≈ are worked out from the molar mass of the structure shown. Structures can show the parent of a compound that is named as a salt. Where two headings read alike, the source gives them in different places.
Assays:
[1] = in water, classification taken from the European Pharmacopoeia, cited from earlier work
[2] = Solubility in water (European Pharmacopoeia solubility classes)

COc1ccc([C@@H]2Sc3ccccc3N(CCN(C)C)C(=O)[C@@H]2OC(C)=O)cc1 [diltiazem hydrochloride]
solubility class according to the European Pharmacopoeia ([1]; hydrochloride): freely soluble
solubility class according to the European Pharmacopoeia ([1]; listed as Diltiazem® hydrochloride, hydrochloride): very soluble

CC(C)C[C@H](CN)CC(=O)O [pregabalin]
solubility class according to the European Pharmacopoeia [1]: sparingly soluble
volume of water in which 1 g is soluble ([2]; 1 g of active material, water): 31 mL
solubility class according to the definition of the European Pharmacopoeia ([2]; class derived from the printed solubility in water): sparingly soluble
solubility ([2]; water): 32.1 mg/mL (≈ 202 mM)
